According to US20250147039A1, “Compounds for complexation of rare earth elements and/or s-, p-, d- block metals, their coordination compounds, peptide conjugates, method of their preparation and use thereof” (USTAV ORGANICKE CHEMIE A BIOCHEMIE AV CR V.V.I., priority 2021, published 2025):

Columns and labels:
[1] = Formation of 1,5-cz-[Ln(Lig)] from Lig and Ln^III ions (metal dependent click-zip), MOPS/NaOH buffer pH 7.0, analytical HPLC (Charts 1, 2); settings: MOPS/NaOH buffer pH 7.0
[2] = Formation of 1,5-cz-[M(Lig)] from Lig and M^III ions (metal dependent click-zip) (Charts 4, 5); type: physicochemical; settings: for conversion to 1,5-cz-[M(Lig)], Bi^III: 4% DMSO in MOPS/NaOH buffer pH 7.0, TD728 in 50% i-PrOH; for conversion to 1,5-cz-[M(Lig)], Ga^III / conversion to 1,5-cz-[M(Lig)], In^III / conversion to 1,5-cz-[M(Lig)], Sc^III / conversion to 1,5-cz-[M(Lig)], Y^III: MOPS/NaOH buffer pH 7.0; for conversion to 1,5-cz-[M(Lig)], Sc^III / conversion to 1,5-cz-[M(Lig)], Y^III: TD728, TD827 in 50% i-PrOH; for conversion to 1,5-cz-[M(Lig)], Y^III: TD714 sum of two diastereoisomers
[3] = pH dependent formation of 1,5- and 1,4-cz-Lig isomers from Lig (pH dependent click-zip) (Chart 13); type: physicochemical
[4] = A: 1 hour at 80° C., 0.1M HClO4 (pH ~1)
[5] = A: 1 hour at 80° C., 1.0M HClO4 (pH ~0)
[6] = A: 1 hour at 80° C., pH 2.2, 50 mM aq. buffer
[7] = A: 1 hour at 80° C., pH 3.0, 50 mM aq. buffer
[8] = A: 1 hour at 80° C., pH 3.8, 50 mM aq. buffer
[9] = A: 1 hour at 80° C., pH 4.6, 50 mM aq. buffer
[10] = A: 1 hour at 80° C., pH 5.4, 50 mM aq. buffer
[11] = A: 1 hour at 80° C., pH 6.2, 50 mM aq. buffer
[12] = A: 1 hour at 80° C., pH 7.0, 50 mM aq. buffer
[13] = A: 1 hour at 80° C., pH 8.6, 50 mM aq. buffer
[14] = A: 1 hour at 80° C., pH 9.4, 50 mM aq. buffer
[15] = A: 1 hour at 80° C., pH 10.2, 50 mM aq. buffer
[16] = B: 1 day at 80° C., 0.1M HClO4 (pH ~1)
[17] = B: 1 day at 80° C., 1.0M HClO4 (pH ~0)

C#Cc1cccc(CN2CCN(CC(=O)O)CCN(Cc3cc(-c4ccccc4)cc(CN=[N+]=[N-])n3)CCN(CC(=O)O)CC2)n1 [TD647]
conversion to 1,5-cz-[Ln(Lig)], Ce^III ([1]; after 1 week at 80° C.): 50% | conversion to 1,5-cz-[Ln(Lig)], Ce^III ([1]; after 1 hour at 80° C.): 1% | conversion to 1,5-cz-[Ln(Lig)], Dy^III ([1]; after 1 week at 80° C.): 92% | conversion to 1,5-cz-[Ln(Lig)], Dy^III ([1]; after 1 hour at 80° C.): 13% | conversion to 1,5-cz-[Ln(Lig)], Er^III ([1]; after 1 week at 80° C.): 95% | conversion to 1,5-cz-[Ln(Lig)], Er^III ([1]; after 1 hour at 80° C.): 32% | conversion to 1,5-cz-[Ln(Lig)], Eu^III ([1]; after 1 week at 80° C.): 89% | conversion to 1,5-cz-[Ln(Lig)], Eu^III ([1]; after 1 hour at 80° C.): 4% | conversion to 1,5-cz-[Ln(Lig)], Gd^III ([1]; after 1 week at 80° C.): 92% | conversion to 1,5-cz-[Ln(Lig)], Gd^III ([1]; after 1 hour at 80° C.): 5% | conversion to 1,5-cz-[Ln(Lig)], Ho^III ([1]; after 1 week at 80° C.): 95% | conversion to 1,5-cz-[Ln(Lig)], Ho^III ([1]; after 1 hour at 80° C.): 21% | conversion to 1,5-cz-[Ln(Lig)], La^III ([1]; after 1 week at 80° C.): 49% | conversion to 1,5-cz-[Ln(Lig)], La^III ([1]; after 1 hour at 80° C.): 1% | conversion to 1,5-cz-[Ln(Lig)], Lu^III ([1]; after 1 week at 80° C.): 96% | conversion to 1,5-cz-[Ln(Lig)], Lu^III ([1]; after 1 hour at 80° C.): 64% | conversion to 1,5-cz-[Ln(Lig)], Nd^III ([1]; after 1 week at 80° C.): 79% | conversion to 1,5-cz-[Ln(Lig)], Nd^III ([1]; after 1 hour at 80° C.): 1% | conversion to 1,5-cz-[Ln(Lig)], Pr^III ([1]; after 1 week at 80° C.): 69% | conversion to 1,5-cz-[Ln(Lig)], Pr^III ([1]; after 1 hour at 80° C.): 1% | conversion to 1,5-cz-[Ln(Lig)], Sm^III ([1]; after 1 week at 80° C.): 86% | conversion to 1,5-cz-[Ln(Lig)], Sm^III ([1]; after 1 hour at 80° C.): 3% | conversion to 1,5-cz-[Ln(Lig)], Tb^III ([1]; after 1 week at 80° C.): 91% | conversion to 1,5-cz-[Ln(Lig)], Tb^III ([1]; after 1 hour at 80° C.): 9% | conversion to 1,5-cz-[Ln(Lig)], Tm^III ([1]; after 1 week at 80° C.): 96% | conversion to 1,5-cz-[Ln(Lig)], Tm^III ([1]; after 1 hour at 80° C.): 48% | conversion to 1,5-cz-[Ln(Lig)], Yb^III ([1]; after 1 week at 80° C.): 96% | conversion to 1,5-cz-[Ln(Lig)], Yb^III ([1]; after 1 hour at 80° C.): 61% | conversion to 1,5-cz-[M(Lig)], Bi^III ([2]; 1 week at 80° C.): 73% | conversion to 1,5-cz-[M(Lig)], Ga^III ([2]; 1 week at 80° C.): 0% | conversion to 1,5-cz-[M(Lig)], In^III ([2]; 1 week at 80° C.): 8% | conversion to 1,5-cz-[M(Lig)], Sc^III ([2]; 1 week at 80° C.): 35% | conversion to 1,5-cz-[M(Lig)], Y^III ([2]; 1 week at 80° C.): 93% | conversion to 1,5-cz-[M(Lig)], Bi^III ([2]; 1 hour at 80° C.): 29% | conversion to 1,5-cz-[M(Lig)], Ga^III ([2]; 1 hour at 80° C.): 0% | conversion to 1,5-cz-[M(Lig)], In^III ([2]; 1 hour at 80° C.): 0% | conversion to 1,5-cz-[M(Lig)], Sc^III ([2]; 1 hour at 80° C.): 7% | conversion to 1,5-cz-[M(Lig)], Y^III ([2]; 1 hour at 80° C.): 20% | conversion to 1,4-cz-Lig isomer [3, 4]: 3% | conversion to 1,5-cz-Lig isomer [3, 4]: 44% | conversion to 1,4-cz-Lig isomer [3, 5]: 2% | conversion to 1,5-cz-Lig isomer [3, 5]: 9% | conversion to 1,4-cz-Lig isomer [3, 6]: 2% | conversion to 1,5-cz-Lig isomer [3, 6]: 17% | conversion to 1,4-cz-Lig isomer [3, 7]: 1% | conversion to 1,5-cz-Lig isomer [3, 7]: 6% | conversion to 1,4-cz-Lig isomer [3, 8]: 1% | conversion to 1,5-cz-Lig isomer [3, 8]: 1% | conversion to 1,4-cz-Lig isomer [3, 9]: 1% | conversion to 1,5-cz-Lig isomer [3, 9]: 1% | conversion to 1,4-cz-Lig isomer [3, 10]: 1% | conversion to 1,5-cz-Lig isomer [3, 10]: 1% | conversion to 1,4-cz-Lig isomer [3, 11]: 1% | conversion to 1,5-cz-Lig isomer [3, 11]: 1% | conversion to 1,4-cz-Lig isomer [3, 12]: 2% | conversion to 1,5-cz-Lig isomer [3, 12]: 1% | conversion to 1,4-cz-Lig isomer [3, 13]: 3% | conversion to 1,5-cz-Lig isomer [3, 13]: 2% | conversion to 1,4-cz-Lig isomer [3, 14]: 3% | conversion to 1,5-cz-Lig isomer [3, 14]: 8% | conversion to 1,4-cz-Lig isomer [3, 15]: 2% | conversion to 1,5-cz-Lig isomer [3, 15]: 17% | conversion to 1,4-cz-Lig isomer [3, 16]: 5% | conversion to 1,5-cz-Lig isomer [3, 16]: 91% | conversion to 1,4-cz-Lig isomer [3, 17]: 8% | conversion to 1,5-cz-Lig isomer [3, 17]: 72% | conversion to 1,4-cz-Lig isomer ([3]; B: 1 day at 80° C., pH 2.2, 50 mM aq. buffer): 6%
